≈ marks a conversion by molar mass, not a printed value.
How the values were obtained:
Type in all cases: cell-based
[1] = test system: ATCC13883 strain (Klebsiella pneumoniae); test: Checkerboard antibacterial synergistic activity test with polymyxin E (FIC); set-up: key: FIC≤0.5 synergy; 0.5–1 additive; 1–2 indifferent; ≥2 antagonism; conditions: combined with polymyxin E
Protocol: (§1) Polymyxin E was diluted in sterile MH broth medium to concentrations of 16, 8, 4, 2, 1, 0.5, 0.25, 0.125, 0.0625, 0.031, and 0.015 μg/ml, and the drug to be tested was diluted to concentrations of 256, 128, 64, 32, 16, 8, and 4 μg/ml. According to the checkerboard method, combinations of the drug to be tested and polymyxin at different concentrations in ascending order were placed into a 96-well plate, and corresponding blank control groups were set up. 50 μl of the drug solution was added to each well, then 100 μl of bacterial liquid was added, and incubated in a 37° C. incubator for 16 hours. […] Calculation and judgment criteria:
(§2) Fractional Inhibitory Concentration (FIC) is calculated as follows: […]
(§3) Judgment criteria: FIC≤0.5: synergistic effect; 0.5<FIC<1: additive effect; 1<FIC<2: indifferent effect; FIC≥2: antagonistic effect.
(§4) In the table: ATCC19606 strain is Acinetobacter baumannii, ATCC25922 strain is Escherichia coli, ATCC13883 strain is Klebsiella pneumoniae, ATCC9027 strain is Pseudomonas aeruginosa. All four strains were purchased from ATCC.

[2] = test system: ATCC19606 strain (Acinetobacter baumannii); test: as above; set-up: key: FIC≤0.5 synergy; 0.5–1 additive; 1–2 indifferent; ≥2 antagonism; conditions: combined with polymyxin E
Protocol: as §1, §2, §3, §4

[3] = test system: ATCC25922 strain (Escherichia coli); test: as above; set-up: key: FIC≤0.5 synergy; 0.5–1 additive; 1–2 indifferent; ≥2 antagonism; conditions: combined with polymyxin E
Protocol: as §1, §2, §3, §4

[4] = test system: ATCC9027 strain (Pseudomonas aeruginosa); test: as above; set-up: key: FIC≤0.5 synergy; 0.5–1 additive; 1–2 indifferent; ≥2 antagonism; conditions: combined with polymyxin E
Protocol: as §1, §2, §3, §4

[5] = test system: ATCC13883 strain (Klebsiella pneumoniae); test: Broth microdilution, antibacterial activity of the compound used alone; conditions: for MIC: read-out: Antibacterial activity of the compound of Formula I, ATCC13883
Excerpt: (§5) The broth microdilution method was used to test the antibacterial effects of the compounds of the present invention against various Gram-negative bacterial strains when used alone.

[6] = test system: ATCC19606 strain (Acinetobacter baumannii); test: as above; conditions: for MIC: read-out: Antibacterial activity of the compound of Formula I, ATCC19606
Excerpt: as §5

[7] = test system: ATCC25922 strain (Escherichia coli); test: as above; conditions: for MIC: read-out: Antibacterial activity of the compound of Formula I, ATCC25922
Excerpt: as §5

[8] = test system: ATCC9027 strain (Pseudomonas aeruginosa); test: as above; conditions: for MIC: read-out: Antibacterial activity of the compound of Formula I, ATCC9027
Excerpt: as §5

MIC [5] [µg/mL]	MIC [6] [µg/mL]	MIC [7] [µg/mL]	MIC [8] [µg/mL]	Compound	Synergistic activity (FIC value) ATCC13883 [1]	Synergistic activity (FIC value) ATCC19606 [2]	Synergistic activity (FIC value) ATCC25922 [3]	Synergistic activity (FIC value) ATCC9027 [4]	Antibacterial activity of the compound of Formula I, ATCC13883 [5] [µg/mL]	Antibacterial activity of the compound of Formula I, ATCC19606 [6] [µg/mL]	Antibacterial activity of the compound of Formula I, ATCC25922 [7] [µg/mL]	Antibacterial activity of the compound of Formula I, ATCC9027 [8] [µg/mL]
				N#Cc1cccc(-c2csc(N=C(N)N)n2)c1 [Compound I-21]	0.52	0.52	0.63	1.25	128	256	128	64
				CCc1oc(N=C2NCCCN2)nc1-c1c(SC)cc2cc(Cl)cc(Cl)n12 [Compound I-197]	0.25	0.31	0.27	0.52	256	256	256	256
256 (≈ 844 µM)	256 (≈ 844 µM)	256 (≈ 844 µM)	256 (≈ 844 µM)	CSc1cc2ccccn2c1-c1csc(N=C(N)N)n1 [Compound I-123]	0.09	0.31	0.14	0.06				
				Fc1sc(N=C2NCCCN2)nc1-c1cc(Br)cc(Br)c1 [Compound I-177]	1.25	0.5	0.63	1.25	256	256	256	256
				CC(C)c1ccccc1-c1coc(N=C(N)N)n1 [Compound I-15]	1.25	1.25	0.5	1.25	256	256	256	256
				Clc1cccc(-c2nc(N=C3NCCCN3)sc2Br)c1 [Compound I-185]	1.25	0.75	1.25	1.25	256	256	256	256
				CSc1cc2cc(C)cc(C)n2c1-c1nc(N=C2NCCCN2)sc1C [Compound I-195]	0.25	0.14	0.31	0.52	256	256	256	256
				NC(N)=Nc1nc(-c2ccc3cccnc3c2)cs1 [Compound I-68]	1.25	0.51	1.25	1.25	256	256	256	256
				NC(N)=Nc1nc(-c2cccc(C(=O)Nc3ccccc3)c2)cs1 [Compound I-110]	0.31	0.25	0.56	0.5	256	256	256	256
				Cc1oc(N=C(N)N)nc1-c1cccc2ccc(Cl)cc12 [Compound I-63]	0.38	0.75	0.5	0.63	256	256	256	256
				c1ccn2c(-c3coc(N=C4NCCCN4)n3)ccc2c1 [Compound I-189]	0.25	0.28	0.5	0.63	256	256	256	256
				CS(=O)(=O)c1ccc(Oc2ccccc2Cl)cc1-c1nc(N=C2NCCCN2)sc1Cl [Compound I-155]	0.16	0.03	0.18	0.28	128	256	128	64
				NC(N)=Nc1nc(-c2cc(C(F)(F)F)c(O)c(C(F)(F)F)c2)co1 [Compound I-45]	0.19	0.13	0.52	1.25	256	256	256	256
256 (≈ 759 µM)	256 (≈ 759 µM)	256 (≈ 759 µM)	256 (≈ 759 µM)	NC(N)=Nc1nc(-c2cccc(NC(=O)c3ccccc3)c2)cs1 [Compound I-109]	1.25	1.25	0.27	1.25				
				Clc1ccc(Oc2ccccc2)c(-c2coc(N=C3NCCCN3)n2)c1 [Compound I-134]	0.53	1.25	1.25	0.52	256	256	256	256

From patent publication US20260250257A1, “ANTIBACTERIAL AND SYNERGISTIC ACTIVE COMPOUND AND USE THEREOF” (EAST CHINA UNIVERSITY OF SCIENCE AND TECHNOLOGY, priority 2023, published 2026)
